Results: patent publication US20100210611A1, “COMBINATION THERAPY” (priority 2007, published 2010)
Several values for one entry are separate records, joined by “and”; a condition that tells them apart may be missing. Equal entries are not always repeated.

Columns and labels:
Format in all cases: physicochemical
[1] = Aerodynamic particle size distribution, Andersen cascade impaction (ACI); settings: Spinhaler; for MMAD: cutoff diameter based on airflow rate of 28.3 L/min; for amount in ACI: including mouthpiece adapter
Source text: The Andersen cascade impaction (ACI) (Apparatus 3) was the device used to determine the aerodynamic size distribution. The impaction provided in vitro measurements of the fraction of the aerosol that has the potential to reach the alveolar region of the lung. This value is represented by the portion of particles detected below plate 2. The impaction was operated at the flow rate and test time according to the method described in USP <601>. Because the Spinhaler® is a low resistance device, it is difficult to achieve a pressure drop of 4 kPa, an adjustment of the air flow rate at the intake of the flow control was performed, as discussed above. Each impaction plate was coated with silicone grease (316 Dow Corning) to prevent particles from bouncing off the plates and returning to the air stream. All stages were used since the test flow rate was less than 60 L/min. All pieces of the impaction including the inhaler and capsule were rinsed with solvent, diluted to suitable volumes, sonicated, centrifuged and assayed using the UV-VIS spectrophotometer. The respirable portion was quantified by the in vitro fine particle fraction and fine particle mass. Dose uniformity and cascade impaction tests were carried out at controlled temperature (20-25° C.) and humidity (50% RH). […]
Aerodynamic size distribution was performed according to USP Chapter <601> by using ACI Apparatus 3 with the Spinhaler® device analogous to that described in section Aerodynamic Particle Size Distribution for Example 1. However, the HPLC was used to analyze the content of the drugs as described in the Blend Uniformity in this example.
Aerodynamic size distribution was performed according to USP Chapter <601> by using ACI Apparatus 3 with the Spinhaler® device in a manner analogous to that described in section Aerodynamic Particle Size Distribution in Example 4. The content of the drugs were analyzed as described in the Blend Uniformity in this example.

[2] = Dose uniformity, Dosage Unit Sampling Apparatus (DUSA), USP <601>; settings: Spinhaler; for Total recovered / amount in Device + Capsule: listed as MOM; for amount in Device + Capsule: nominal 1000 μg MON, 400 μg MOM
Protocol: Dose uniformity was determined using Apparatus B (Dosage Unit Sampling Apparatus—DUSA) at a flow rate of 100 L/min (test described in United States Pharmacopoeia (USP) 27 Chapter <601>). The USP recommends selecting a flow rate that creates a pressure drop of 4 kPa across the inhaler. With the Spinhaler, a 4 kPa pressure drop could not be achieved even at the maximum flow rate of 100 L/min. Based on the recommendations of Byron, et al., a flow rate of 100 L/min was selected since the Spinhaler is a low resistance device. See Michael Hindle and Peter R. Byron, “Dose emissions from marketed dry powder inhalers”, International Journal of Pharmaceutics 116 (1995) 169-177. The test was run for 2.4 seconds in order to pull 4 L of air. After a shot had been delivered, all pieces of the DUSA including the mouthpiece adapter were rinsed with solvent. To determine the amount of drug retained in the inhaler, all pieces of the inhaler were rinsed with solvent including the interior of the capsule. The samples were then assayed using the UV-Vis spectrophotometer.
Shot weight was obtained by measuring the weight loss due to the actuation of the device. The device was tared, a “shot” was wasted in the DUSA and the device was re-weighed to obtain the delivered shot weight. Dose and shot weight were deemed acceptable if they were within 75% to 125% of the theoretical values (USP <601>).
Dose Uniformity (DU) was performed according to USP Chapter <601> by using DUSA Apparatus B with the Spinhaler® device which is analogous to that described in section Dose Uniformity for Example 1. However, the HPLC was used to analyze the content of the drugs as described in the Blend Uniformity in this example.
Dose Uniformity was performed according to USP Chapter <601> by using DUSA Apparatus B with the Spinhaler® device and in a manner analogous to that described in section Dose Uniformity in Example 4, except the HPLC was used to analyze the content of the drugs as described in the Blend Uniformity in this example.

[3] = Blend uniformity (individual capsule assay); settings: HPLC, Mean ± RSD
Protocol: To assess blend uniformity, capsules from each blend were opened and rinsed with methanol. The solution was sonicated for 5 minutes at room temperature, centrifuged at 3000 rpm for 15 minutes then assayed using a UV-VIS spectrophotometer at a wavelength of 346 nm. […]
To assess blend uniformity, the blend was sampled randomly from the glass vial. The drugs were extracted analogous to that described in section Blend Uniformity for Example 1. However, the content of montelukast acid and mometasone furoate were analyzed by High Performance Liquid Chromatography (HPLC) employing a phenyl column with a controlled temperature of 50° C., a mixture of water containing 0.2% trifluoroacetic acid (TFA) and acetonitrile containing 0.2% TFA (53:47) as the mobile phase at a flow rate 2 ml/min and UV-detection at 248 nm.
The blend uniformity was assessed in a manner analogous to that described in the Blend Uniformity section in Example 4, except the content of montelukast acid and ciclesonide were analyzed by High Performance Liquid Chromatography (HPLC) employing a phenyl column with a controlled temperature of 50° C., a mixture of water containing 0.2% trifluoroacetic acid (TFA) and acetonitrile containing 0.2% TFA (40:60) at a flow rate 2 ml/min and UV-detection at 248 nm.

[4] = Particle size of unmilled and jet milled API
[5] = Moisture and light sensitivity
[6] = Example 4 blend, listed as mometasone furoate
[7] = Example 4 blend, flow 61.5 L/min for 3.9 sec
[8] = Example 4 blend, flow 62.3 L/min for 3.9 sec
[9] = Example 4 blend, flow 62.8 L/min for 3.8 sec
[10] = Example 5 blend, listed as ciclesonide
[11] = Milled API, Microtrac data, after sonication for 60 seconds
[12] = Unmilled API, optical microscopy

C[C@@H]1C[C@H]2[C@@H]3CCC4=CC(=O)C=C[C@]4(C)[C@@]3(Cl)[C@@H](O)C[C@]2(C)[C@@]1(OC(=O)c1ccco1)C(=O)CCl [Mometasone Furoate, mometasone furoate]
FPD ([1]; Example 4 blend): 43.5 µg and 53.9 µg and 41.8 µg | FPF ([1]; Example 4 blend): 21.0% and 22.7% and 22.1% | GSD ([1]; Example 4 blend): 1.5 | Total recovered ([1]; Example 4 blend): 404 µg and 402 µg and 395 µg | amount in inhaler ([1]; Example 4 blend): 198 µg and 165 µg and 206 µg | MMAD ([1]; Example 4 blend): 3.9 μm and 4.1 μm | MMAD [1, 6]: 4.0 μm | MMAD ([1]; Example 4 blend, mean): 4.0 μm | amount in ACI ([1]; Example 4 blend): 207 µg and 237 µg and 189 µg | amount in ACI ([1]; Example 4 blend, mean): 211 µg | FPF [1, 6]: 22% | FPD ([1]; Example 4 blend, mean): 46.4 µg | FPF ([1]; Example 4 blend, mean): 21.9% | GSD ([1]; Example 4 blend, mean): 1.4 | Total recovered ([1]; Example 4 blend, mean): 400 µg | amount in inhaler ([1]; Example 4 blend, mean): 189 µg | DU based on nominal dose, % (Device + Capsule) ([2]; Example 4 blend): 44.5% | DU based on nominal dose, % (printed in Adapter + Filter column) ([2]; Example 4 blend): 55.5% | DU based on total recovered, % (Device + Capsule) ([2]; Example 4 blend): 44.5% | DU based on total recovered, % (printed in Adapter + Filter column) ([2]; Example 4 blend): 55.5% | Total recovered [2, 7]: 397.04 µg and 394.77 µg and 399.78 µg | Total recovered [2, 8]: 408.74 µg and 407.23 µg | Total recovered [2, 9]: 394.15 µg and 396.73 µg | amount in Device + Capsule [2, 7]: 179.94 µg and 178.36 µg and 177.83 µg | amount in Device + Capsule [2, 8]: 165.97 µg and 165.37 µg | amount in Device + Capsule [2, 9]: 187.90 µg and 189.44 µg | Amount Recovered (μg/Capsule) ([3]; Example 4 blend (montelukast acid 4%, mometasone furoate 1.6%)): 386.8 µg and 371.6 µg and 389.5 µg | Amount Recovered (μg/Capsule) ([3]; Example 4 blend (montelukast acid 4%, mometasone furoate 1.6%), mean): 382.6 ± 2.6 µg | Amount Recovered, % ([3]; Example 4 blend): 93.9% and 93.5% and 95.8% | Amount Recovered, % ([3]; Example 4 blend, mean): 94.4 ± 1.4%

CC(C)C(=O)OCC(=O)[C@@]12O[C@H](C3CCCCC3)O[C@@H]1C[C@H]1[C@@H]3CCC4=CC(=O)C=C[C@]4(C)[C@H]3[C@@H](O)C[C@@]12C [Ciclesonide, ciclesonide]
FPD ([1]; Example 5 blend): 33.6 µg and 31.1 µg and 41.4 µg | FPF ([1]; Example 5 blend): 30.6% and 29.1% and 33.9% | GSD ([1]; Example 5 blend): 1.7 and 1.5 | Total recovered ([1]; Example 5 blend): 177 µg and 160 µg and 178 µg | amount in inhaler ([1]; Example 5 blend): 67 µg and 53 µg and 56 µg | MMAD ([1]; Example 5 blend): 3.6 μm and 3.8 μm | MMAD [1, 10]: 3.7 μm | MMAD ([1]; Example 5 blend, mean): 3.7 μm | amount in ACI ([1]; Example 5 blend): 110 µg and 107 µg and 122 µg | amount in ACI ([1]; Example 5 blend, mean): 113 µg | FPF [1, 10]: 31% | FPD ([1]; Example 5 blend, mean): 35.5 µg | FPF ([1]; Example 5 blend, mean): 31.2% | GSD ([1]; Example 5 blend, mean): 1.6 | Total recovered ([1]; Example 5 blend, mean): 172 µg | amount in inhaler ([1]; Example 5 blend, mean): 59 µg | DU based on nominal dose, % (Device + Capsule) ([2]; Example 5 blend): 35.2% | DU based on nominal dose, % (printed in Adapter + Filter column) ([2]; Example 5 blend): 61.7% | DU based on total recovered, % (Device + Capsule) ([2]; Example 5 blend): 36.3% | DU based on total recovered, % (printed in Adapter + Filter column) ([2]; Example 5 blend): 63.7% | Amount Recovered (μg/Capsule) ([3]; Example 5 blend (montelukast acid 4%, ciclesonide 0.64%)): 150.9 µg and 146.7 µg and 157.6 µg | Amount Recovered (μg/Capsule) ([3]; Example 5 blend (montelukast acid 4%, ciclesonide 0.64%), mean of three capsules): 151.1 ± 3.3 µg | Amount Recovered, % ([3]; Example 5 blend): 93.3% and 93.7% and 92.5% | Amount Recovered, % ([3]; Example 5 blend, mean of three capsules): 93.2 ± 0.6%

O=C(NC1CC1)c1cn(-c2cccc(C#Cc3ccc[n+]([O-])c3)c2)c2ncccc2c1=O [Compound X, N-cyclopropyl-1-[3-(1-oxido-3-pyridinylethynyl)phenyl]-1,4-dihydro[1,8]-naphthyridin-4-one-3-carboxamide]
Particle size, 95% ([4]; Milled API, Aerosizer data): 7.832 microns | Particle size, Mean ([4]; Milled API, Aerosizer data): 2.832 microns | Particle size, 95% [4, 11]: 4.577 microns | Particle size, Mean [4, 11]: 2.794 microns | Particle size, 95% [4, 12]: 37 microns | Particle size, Mean [4, 12]: 11 microns | moisture and light sensitivity [5]: moisture sensitive and photosensitive
